# Experimental data taken from patent US12110299B2, “Thiazole derivatives and pharmaceutically acceptable salts thereof” (YUNGJIN PHARM. CO., LTD., priority 2018, dated 2024).
# How the values were obtained:
# MDA-MB-468 cells [1] = assay: Anti-proliferative effect on MDA-MB-468 cells, inhibition rate at 100 nM (tetrazolium salt method); type: cell-based; conditions: Homo sapiens, 72 hours
# Description: Representative compounds of the present invention were tested at different concentrations (from 1000 nM to 25 nM) to assess their ability to inhibit the proliferation of MDA-MB-468 cells. Cells were grown in RPMI 1640 (Welgene)+10% FBS (Gibco)+1% penicillin/streptomycin (Gibco) and cultured at 37° C. in a humidified chamber in the presence of 5% CO2.
# MDA-MB-468 cells cultured in 96-well cell culture plates were treated with representative compounds of the present invention and cultured for 72 hours.
# MDA-MB-468 cells [2] = assay: Anti-proliferative effect on MDA-MB-468 cells, IC50 (MTT); type: cell-based
# Description: The compounds of the present invention were tested at different concentrations (from 1000 nM to 1 nM) to assess their ability for inhibiting the proliferation of MDAMB-468 cells. Cells were cultivated in RPMI 1640 (Welgene)+10% FBS (Gibco)+1% penicillin/streptomycin (Gibco) and cultured at 37° C. in a humidified chamber in the presence of 5% C02.
# MDA-MB-468 cells cultured in 96-well cell culture plates were treated with the compounds of the present invention and incubated for 72 hours.
# HepG2 cells = assay: HepG2 cell viability assay (CCK-8); type: cell-based, human
# [3] = molecular target: recombinant purified human CDK7 kinase (Homo sapiens (Human), UniProt P50613); assay: CDK7 kinase-inhibitory activity, ADP-Glo kinase assay; type: biochemical; conditions: ATP 90 µM, MBP substrate, 2 hours at 30° C., read-out: CDK7 inhibition(IC50 nM)
# Chain of recombinant purified human CDK7 kinase (P50613 whole entry): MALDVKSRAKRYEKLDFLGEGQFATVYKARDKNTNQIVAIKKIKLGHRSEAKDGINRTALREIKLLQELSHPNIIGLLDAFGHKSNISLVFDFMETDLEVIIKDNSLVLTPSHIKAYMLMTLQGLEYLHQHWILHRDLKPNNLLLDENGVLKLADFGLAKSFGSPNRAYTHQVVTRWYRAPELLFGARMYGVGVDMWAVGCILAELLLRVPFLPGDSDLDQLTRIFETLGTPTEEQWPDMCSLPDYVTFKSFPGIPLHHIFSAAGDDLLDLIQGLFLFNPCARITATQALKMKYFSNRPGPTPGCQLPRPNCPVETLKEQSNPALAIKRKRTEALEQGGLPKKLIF
# Chain of recombinant purified human CDK7 kinase (P51946 whole entry partner): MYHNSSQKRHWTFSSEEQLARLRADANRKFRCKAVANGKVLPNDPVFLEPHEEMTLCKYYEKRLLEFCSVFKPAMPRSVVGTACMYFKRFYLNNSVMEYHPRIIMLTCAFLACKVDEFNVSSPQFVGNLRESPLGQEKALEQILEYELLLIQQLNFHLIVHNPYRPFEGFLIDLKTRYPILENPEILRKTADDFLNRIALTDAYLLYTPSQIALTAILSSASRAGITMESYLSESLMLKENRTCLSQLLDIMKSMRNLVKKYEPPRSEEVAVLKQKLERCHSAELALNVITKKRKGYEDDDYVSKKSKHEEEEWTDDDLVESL
# Chain of recombinant purified human CDK7 kinase (P51948 whole entry partner): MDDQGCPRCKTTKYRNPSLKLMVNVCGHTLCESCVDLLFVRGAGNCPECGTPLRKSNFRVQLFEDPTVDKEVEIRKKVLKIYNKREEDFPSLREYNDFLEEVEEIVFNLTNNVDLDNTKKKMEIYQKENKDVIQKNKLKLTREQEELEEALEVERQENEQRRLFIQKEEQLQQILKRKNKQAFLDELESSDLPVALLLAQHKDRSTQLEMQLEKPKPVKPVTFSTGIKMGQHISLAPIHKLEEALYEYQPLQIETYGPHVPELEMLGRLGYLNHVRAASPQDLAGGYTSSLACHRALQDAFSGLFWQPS
# Description: Representative compounds of the present invention were assayed in vitro for CDK7 kinase-inhibitory activities using ADP-Glo platform. In detail, CDK7 kinase-inhibitory activity was measured using recombinant purified human CDK7 kinase (ThermoFisher, PV3868) and ADP Glo kinase assays kit (Promega, V9102). CDK7 kinase was diluted with 1× kinase reaction buffer (40 mM Tris-C1, pH 7.5, 20 mM MgCl2, 0.1 mg/ml BSA and 50 [M DTT) and added to 96 well plates (final concentration of CDK7 per reaction: 50 ng). The compound was finally treated to be a 1% DMSO aqueous solution, and a substrate cocktail containing ATP (final concentration of 90 [M) and 0.2 μg/μl of MBP (Myelin basic protein) in a total of 25 μl of reaction mass was added to 96 well plates, thereby initiating an enzymatic reaction. After 2 hours of incubation (30° C.), equivalent volume (25 μl per reaction) of ADP Glo was added and incubated (30° C.) at room temperature for 60 minutes. The kinase detection reagent (50 μl per reaction) was then added and incubated (30° C.) at room temperature for 30 minutes. The kinase activity was measured by chemiluminescence method according to ADP Glo Kanease Assay Kit instruction manual, and the CDK7-inhibitory activity of the compounds according to the present invention was calculated. The result analysis of each compound was performed using Microsoft Excel, and IC50 values were calculated by Prism software.
# CDK7 = CDK7 (Homo sapiens (Human), UniProt P50613); assay: scanMAX Kinase Assay Panel, CDK7; type: binding; conditions: read-out: % inhibition at 1 uM CDK7, compound at 1 uM
# Chain of CDK7 (P50613 whole entry): as the sequence (P50613 whole entry) above
# Description: (§1) The assay (scanMAX Kinase Assay Panel) was performed. […] Kinase Assay Panel contains a set of 468 kinases including CDK2, CDK5. The compounds were screened at 1 [M, and results for binding interactions are reported compared to control (%).
# CDK2 = CDK2 (Homo sapiens (Human), UniProt P24941); assay: scanMAX Kinase Assay Panel, CDK2; type: binding; conditions: read-out: % inhibition at 1 uM CDK2, compound at 1 uM
# Description: as §1
# CDK5 = CDK5 (Homo sapiens (Human), UniProt Q00535); assay: scanMAX Kinase Assay Panel, CDK5; type: binding; conditions: read-out: % inhibition at 1 uM CDK5, compound at 1 uM
# Chain of CDK5 (Q00535 whole entry): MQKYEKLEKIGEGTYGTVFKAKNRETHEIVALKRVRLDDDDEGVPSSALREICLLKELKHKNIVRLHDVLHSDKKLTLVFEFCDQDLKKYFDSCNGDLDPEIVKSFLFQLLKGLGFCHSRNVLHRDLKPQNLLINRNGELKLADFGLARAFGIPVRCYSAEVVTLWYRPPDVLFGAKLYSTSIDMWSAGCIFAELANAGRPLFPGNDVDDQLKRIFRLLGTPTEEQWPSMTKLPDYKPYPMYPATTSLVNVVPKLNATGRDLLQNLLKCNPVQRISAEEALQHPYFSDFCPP
# Description: as §1
SMILES,"IC50 (MDA-MB-468 cells [2]; Homo sapiens, MDA-MB-468, 72 h) [nM]","IC50 (HepG2 cells; Homo sapiens, HepG2, 72 h) [nM]",IC50 [3] [nM],further results
"CC(C(=O)Nc1ncc(C2CC2)s1)c1cccc(-c2ccc(NC(=O)/C=C/CN(C)C)nc2)c1 (centres unmarked) [Example 6, (E)-N-(5-(3-(1-((5-cyclopropylthiazol-2-yl)amino)-1-oxopropan-2-yl)phenyl)pyridin-2-yl)-4-(dimethylamino)but-2-enamide]",86,22,–,inhibition at 0.1 µM (MDA-MB-468 cells [1]): 66%
C=CC(=O)Nc1ccc(-c2cccc([C@H](C)C(=O)Nc3ncc(C4CC4)s3)c2)cn1 [Example 14],63,5,–,inhibition at 0.1 µM (MDA-MB-468 cells [1]): 74%
"C=CC(=O)Nc1cnc(-c2cccc([C@H](C)C(=O)Nc3ncc(C(F)(F)F)s3)c2)cn1 [Example 37, (S)-N-(5-(3-(1-oxo-1-((5-(trifluoromethyl)thiazol-2-yl)amino)propan-2-yl)phenyl)pyrazin-2-yl)acrylamide]",40,8,17,inhibition at 0.1 µM (MDA-MB-468 cells [1]): 60%
"C=CC(=O)Nc1cnc(-c2cncc(C(C)C(=O)Nc3ncc(C(F)(F)F)s3)c2)cn1 (centres unmarked) [Example 45, N-(5-(5-(1-oxo-1-((5-(trifluoromethyl)thiazol-2-yl)amino)propan-2-yl)pyridin-3-yl)pyrazin-2-yl)acrylamide]",10,8,22,inhibition at 0.1 µM (MDA-MB-468 cells [1]): 59%
"C=CC(=O)Nc1cnc(-c2cncc([C@H](C)C(=O)Nc3ncc(C(F)(F)F)s3)c2)cn1 [Example 52, (S)-N-(5-(5-(1-oxo-1-((5-(trifluoromethyl)thiazol-2-yl)amino)propan-2-yl)pyridin-3-yl)pyrazin-2-yl)acrylamide]",–,–,19,inhibition at 0.1 µM (MDA-MB-468 cells [1]): 72%
"CC(C(=O)Nc1ncc(C(F)(F)F)s1)c1cncc(-c2cnc(NC(=O)/C=C/CN(C)C)cn2)c1 (centres unmarked) [Example 63, (E)-4-(dimethylamino)-N-(5-(5-(1-oxo-1-((5-(trifluoromethyl)thiazol-2-yl)amino)propan-2-yl)pyridin-3-yl)pyrazin-2-yl)but-2-enamide]",20,2,17,–
"CC(C(=O)Nc1ncc(Cl)s1)c1cncc(-c2cnc(NC(=O)/C=C/CN(C)C)cn2)c1 (centres unmarked) [Example 73, (E)-N-(5-(5-(1-((5-chlorothiazol-2-yl)amino)-1-oxopropan-2-yl)pyridin-3-yl)pyrazin-2-yl)-4-(dimethylamino)but-2-enamide]",35,–,43,–
"C[C@H](C(=O)Nc1ncc(C(F)(F)F)s1)c1cccc(-c2cnc(NC(=O)/C=C/CN(C)C)cn2)c1 [Example 91, (S,E)-4-(dimethylamino)-N-(5-(3-(1-oxo-1-((5-(trifluoromethyl)thiazol-2-yl)amino)propan-2-yl)phenyl)pyrazin-2-yl)but-2-enamide]",–,–,8,IC50 (MDA-MB-468 cells [2]; 72 hours): 38 nM; IC50 (HepG2 cells; 72 hours): 9.5 nM
"C[C@H](C(=O)Nc1ncc(C(F)(F)F)s1)c1cccc(-c2cnc(NC(=O)/C=C/CN3CCN(C)CC3)cn2)c1 [Example 95, (S,E)-4-(4-methylpiperazin-1-yl)-N-(5-(3-(1-oxo-1-((5-(trifluoromethyl)thiazol-2-yl)amino)propan-2-yl)phenyl)pyrazin-2-yl)but-2-enamide]",57,–,80,–
"C[C@H](C(=O)Nc1ncc(C(F)(F)F)s1)c1cccc(-c2cnc(NC(=O)/C=C/CN(C)C)c(C#N)c2)c1 [Example 101, (S,E)-N-(3-cyano-5-(3-(1-oxo-1-((5-(trifluoromethyl)thiazol-2-yl)amino)propan-2-yl)phenyl)pyridin-2-yl)-4-(dimethylamino)but-2-enamide]",30,5,7,inhibition at 1 µM (CDK7): 99%; inhibition at 1 µM (CDK2): 26%; inhibition at 1 µM (CDK5): 22%
"C[C@H](C(=O)Nc1ncc(N(C)C)s1)c1cccc(-c2cnc(NC(=O)/C=C/CN(C)C)cn2)c1 [Example 106, (S,E)-4-(dimethylamino)-N-(5-(3-(1-((5-(dimethylamino)thiazol-2-yl)amino)-1-oxopropan-2-yl)phenyl)pyrazin-2-yl)but-2-enamide]",–,–,71,–
"C[C@H](C(=O)Nc1ncc(C(F)(F)F)s1)c1cccc(-c2ccc(NC(=O)/C=C/CN(C)C)nc2)c1 [Example 116, (S,E)-4-(dimethylamino)-N-(5-(3-(1-oxo-1-((5-(trifluoromethyl)thiazol-2-yl)amino)propan-2-yl)phenyl)pyridin-2-yl)but-2-enamide]",65,–,13,–
"C[C@H](C(=O)Nc1ncc(C(F)(F)F)s1)c1cccc(-c2cnc(NC(=O)/C=C/CN3CC[C@H](F)C3)cn2)c1 [Example 117, (E)-4-((S)-3-fluoropyrrolidin-1-yl)-N-(5-(3-((S)-1-oxo-1-((5-(trifluoromethyl)thiazol-2-yl)amino)propan-2-yl)phenyl)pyrazin-2-yl)but-2-enamide]",56,–,15,–
"C[C@H](C(=O)Nc1ncc(C(F)(F)F)s1)c1cccc(-c2cnc(NC(=O)/C=C/CN3CCC(O)C3)cn2)c1 (stereo partly drawn) [Example 119, (E)-4-(3-hydroxypyrrolidin-1-yl)-N-(5-(3-((S)-1-oxo-1-((5-(trifluoromethyl)thiazol-2-yl)amino)propan-2-yl)phenyl)pyrazin-2-yl)but-2-enamide]",44,–,9,–
"CCc1cnc(NC(=O)[C@@H](C)c2cccc(-c3cnc(NC(=O)/C=C/CN(C)C)c(C#N)c3)c2)s1 [Example 121, (S,E)-N-(3-cyano-5-(3-(1-((5-ethylthiazol-2-yl)amino)-1-oxopropan-2-yl)phenyl)pyridin-2-yl)-4-(dimethylamino)but-2-enamide]",23,3,7,inhibition at 1 µM (CDK7): 99%; inhibition at 1 µM (CDK2): 20%; inhibition at 1 µM (CDK5): 30%
CCc1cnc(NC(=O)[C@@H](C)c2cccc(-c3cnc(NC(=O)/C=C/CN(C)C)c(C)c3)c2)s1 [Example 125],33,–,13,–
"CCc1cnc(NC(=O)[C@@H](C)c2cccc(-c3cnc(NC(=O)/C=C/CN(C)C)c(F)c3)c2)s1 [Example 130, (S,E)-4-(dimethylamino)-N-(5-(3-(1-((5-ethylthiazol-2-yl)amino)-1-oxopropan-2-yl)phenyl)-3-fluoropyridin-2-yl)but-2-enamide]",18,3.8,8,–
